Several values for one entry are separate records, joined by “and”; a condition that tells them apart may be missing. Equal values may be shown once.
Tests used:
[1] = target: T1, wt human TYK2, catalytic site (Homo sapiens, UniProt P29597); test: HTRF KinEASE assay, TYK2; type: biochemical; conditions: 1 μM ATP; read-out: IC50, Activity Toward TYK2
T1 construct: wt human TYK2, catalytic site; purchased SignalChem
T1 sequence (P29597 897-1176 limits assumed): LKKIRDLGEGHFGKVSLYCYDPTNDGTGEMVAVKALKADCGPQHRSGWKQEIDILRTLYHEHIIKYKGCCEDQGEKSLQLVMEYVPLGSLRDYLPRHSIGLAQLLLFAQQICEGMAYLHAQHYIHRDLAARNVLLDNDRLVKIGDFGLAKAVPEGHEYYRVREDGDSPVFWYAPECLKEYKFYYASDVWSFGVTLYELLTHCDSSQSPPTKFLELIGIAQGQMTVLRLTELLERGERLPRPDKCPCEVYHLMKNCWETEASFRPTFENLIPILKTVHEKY
Summary of the method: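 HTRF KinEASE-TK readout with 1 μM biotinylated TK substrate in 1× kinase buffer, ≥30 min at room temperature, then antibody/streptavidin-XL665 detection for 60 min. TYK2 at 2 nM with 1 μM ATP; JAK2 at 1 nM with 100 μM ATP. Analysis uses emission ratios.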

[2] = target: T2, wt human JAK1, catalytic site (Homo sapiens, UniProt P23458); test: HTRF KinEASE assay, JAK1; type: biochemical; conditions: 2.5 μM ATP; read-out: IC50, Activity Toward JAK1
T2 construct: wt human JAK1, catalytic site; purchased ThermoFisher
Method: Basic protocol for HTRF KinEASE assay (Cisbio/FRA) inhibitor studies involved two steps: • Enzymatic step: Addition of 4 μL of test compound in corresponding DMSO dilutions, 4 μL of kinase/substrate mixture, 2 μL of ATP into 384 well small volume plates. Incubation for at least 30 minutes at room temperature. • Detection step: Addition of 5 μL antibody and 5 μL streptavidin-XL665, read plate after 60 minutes. Data analysis of emission ratios according KinEASE assay protocol.
(§1) Kinase and assay components were adjusted to final concentrations according to kit protocol. For TYK2: 2 nM wt human TYK2, catalytic site (SignalChem/CAN), 1 μM HTRF KinEASE-TK Substrate-biotin, 1 μM ATP in 1× Kinase Buffer. […] For JAK2: 1 nM wt human JAK2, catalytic site (SignalChem/CAN), 1 μM HTRF KinEASE-TK Substrate-biotin, 100 μM ATP in 1× Kinase Buffer.
as §1

T2 sequence (P23458 875-1153 limits assumed): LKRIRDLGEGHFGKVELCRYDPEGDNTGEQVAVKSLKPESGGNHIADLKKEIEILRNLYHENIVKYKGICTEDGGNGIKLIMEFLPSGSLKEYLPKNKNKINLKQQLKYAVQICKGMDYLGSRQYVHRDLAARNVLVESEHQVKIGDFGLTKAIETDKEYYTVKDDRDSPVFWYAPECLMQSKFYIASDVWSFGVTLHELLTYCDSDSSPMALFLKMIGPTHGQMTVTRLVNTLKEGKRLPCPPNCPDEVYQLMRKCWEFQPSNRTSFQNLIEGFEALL

SMILES | IC50 [1] | IC50 [2]
NC(=O)c1nn(-c2c(Cl)cccc2Cl)cc1Nc1ccc(-n2nc(C(F)(F)F)nc2CO)nc1 [compound 385, 1-(2,6-dichlorophenyl)-4-((6-(5-(hydroxymethyl)-3-(trifluoromethyl)-1H-1,2,4-triazol-1-yl)pyridin-3-yl)amino)-1H-pyrazole-3-carboxamide] | 10 to 100 nM | 100 to 1000 nM
Cc1csc2nnc(-c3ccc(Nc4cn(-c5c(Cl)cccc5Cl)nc4C(N)=O)cn3)n12 [compound 475, 1-(2,6-dichlorophenyl)-4-((6-(5-methylthiazolo[2,3-c][1,2,4]triazol-3-yl)pyridin-3-yl)amino)-1H-pyrazole-3-carboxamide] | 100 to 1000 nM | 100 to 1000 nM
Cc1cccc2nnc(-c3ccc(Nc4cn(-c5c(Cl)cccc5Cl)nc4C(N)=O)nc3)n12 [compound 429, 1-(2,6-dichlorophenyl)-4-((5-(5-methyl-[1,2,4]triazolo[4,3-a]pyridin-3-yl)pyridin-2-yl)amino)-1H-pyrazole-3-carboxamide] | 10 to 100 nM | 100 to 1000 nM
NC(=O)c1nn(-c2c(Cl)cccc2Cl)cc1Nc1ccc(-n2nnc3c2CCCC3)cc1 [compound 73, 1-(2,6-dichlorophenyl)-4-((4-(4,5,6,7-tetrahydro-1H-benzo[d][1,2,3]triazol-1-yl)phenyl)amino)-1H-pyrazole-3-carboxamide] | 10 to 100 nM | 100 to 1000 nM
Cn1ccc(=O)n1-c1ccc(Nc2cn(-c3c(Cl)cccc3Cl)nc2C(N)=O)cc1 [compound 77, 1-(2,6-dichlorophenyl)-4-((4-(2-methyl-5-oxo-2,5-dihydro-1H-pyrazol-1-yl)phenyl)amino)-1H-pyrazole-3-carboxamide] | 100 to 1000 nM | 100 to 1000 nM
NC(=O)c1nn(-c2c(Cl)cccc2Cl)cc1Nc1ccc(C(=O)N2CCN(C3CC3)CC2)cn1 [compound 383, 4-((5-(4-cyclopropylpiperazine-1-carbonyl)pyridin-2-yl)amino)-1-(2,6-dichlorophenyl)-1H-pyrazole-3-carboxamide] | 10 to 100 nM and 100 to 1000 nM | 100 to 1000 nM
CC(C)c1nnnn1-c1ccc(Nc2cn(-c3c(Cl)cccc3Cl)nc2C(N)=O)cn1 [compound 393, 1-(2,6-dichlorophenyl)-4-((6-(5-isopropyl-1H-tetrazol-1-yl)pyridin-3-yl)amino)-1H-pyrazole-3-carboxamide] | 100 to 1000 nM | 100 to 1000 nM
CC(C)(C)C(=O)c1ccc(Nc2cn(-c3c(Cl)cccc3Cl)nc2C(N)=O)cc1 [compound 41, 1-(2,6-dichlorophenyl)-4-((4-pivaloylphenyl)amino)-1H-pyrazole-3-carboxamide] | 100 to 1000 nM | 100 to 1000 nM
N#Cc1cc(Cl)c(-n2nc(Nc3ccc(C(=O)N4CCC(F)C4)cc3)c(C(N)=O)n2)c(Cl)c1 (stereo in doubt) [compound 148, (R)-2-(2,6-dichloro-4-cyanophenyl)-5-((4-(3-fluoropyrrolidine-1-carbonyl)phenyl)amino)-2H-1,2,3-triazole-4-carboxamide] | 10 to 100 nM | 100 to 1000 nM
COc1ccc(Cn2cc(Nc3cn(-c4c(Cl)cccc4Cl)nc3C(N)=O)cn2)cc1 [compound 392, 1-(2,6-dichlorophenyl)-4-((1-(4-methoxybenzyl)-1H-pyrazol-4-yl)amino)-1H-pyrazole-3-carboxamide] | 100 to 1000 nM | 100 to 1000 nM
Cn1ccc(Oc2ccc(Nc3cn(-c4c(Cl)cccc4Cl)nc3C(N)=O)cc2)n1 [compound 78, 1-(2,6-dichlorophenyl)-4-((4-((1-methyl-1H-pyrazol-3-yl)oxy)phenyl)amino)-1H-pyrazole-3-carboxamide] | 10 to 100 nM | 100 to 1000 nM

Next, values leading:

IC50 [1] | IC50 [2] | SMILES
< 10 nM | < 10 nM | NC(=O)c1nn(-c2c(Cl)cc(F)cc2Cl)nc1Nc1ccc(C(=O)N2CCS(=O)(=O)CC2)cc1 [compound 175, 2-(2,6-dichloro-4-fluorophenyl)-5-((4-(1,1-dioxidothiomorpholine-4-carbonyl)phenyl)amino)-2H-1,2,3-triazole-4-carboxamide]
10 to 100 nM | 10 to 100 nM | Cn1cc(C(F)(F)F)nc1-c1ccc(Nc2nn(-c3c(Cl)cccc3Cl)nc2C(N)=O)nc1 [compound 144, 2-(2,6-dichlorophenyl)-5-((5-(1-methyl-4-(trifluoromethyl)-1H-imidazol-2-yl)pyridin-2-yl)amino)-2H-1,2,3-triazole-4-carboxamide]
10 to 100 nM | 10 to 100 nM | CS(=O)(=O)Nc1ccc(Nc2cn(-c3c(Cl)cccc3Cl)nc2C(N)=O)cc1 [compound 271, 1-(2,6-dichlorophenyl)-4-((4-(methylsulfonamido)phenyl)amino)-1H-pyrazole-3-carboxamide]
10 to 100 nM | 10 to 100 nM | Cc1nnnn1-c1ccc(Nc2cn(-c3c(Cl)cccc3Cl)nc2C(N)=O)nc1 [compound 435, 1-(2,6-dichlorophenyl)-4-((5-(5-methyl-1H-tetrazol-1-yl)pyridin-2-yl)amino)-1H-pyrazole-3-carboxamide]
100 to 1000 nM | 10 to 100 nM | CN(C)[C@@H]1CCN(C(=O)c2ccc(Nc3nn(-c4c(Cl)cccc4Cl)nc3C(N)=O)nc2)C1 [compound 133, (R)-2-(2,6-dichlorophenyl)-5-((5-(3-(dimethylamino)pyrrolidine-1-carbonyl)pyridin-2-yl)amino)-2H-1,2,3-triazole-4-carboxamide]
10 to 100 nM | < 10 nM | NC(=O)c1nn(-c2c(Cl)cc(F)cc2Cl)nc1Nc1ccc(C(=O)N2CC[C@@H](F)C2)cc1 [compound 146, (R)-2-(2,6-dichloro-4-fluorophenyl)-5-((4-(3-fluoropyrrolidine-1-carbonyl)phenyl)amino)-2H-1,2,3-triazole-4-carboxamide]
< 10 nM | 10 to 100 nM | COCn1cc(C(F)(F)F)nc1-c1ccc(Nc2cn(-c3c(Cl)cccc3Cl)nc2C(N)=O)cc1 [compound 292, 1-(2,6-dichlorophenyl)-4-((4-(1-(methoxymethyl)-4-(trifluoromethyl)-1H-imidazol-2-yl)phenyl)amino)-1H-pyrazole-3-carboxamide]
10 to 100 nM | < 10 nM | CCc1ncnn1-c1ccc(Nc2cn(-c3c(Cl)cccc3Cl)nc2C(N)=O)cc1 [compound 291, 1-(2,6-dichlorophenyl)-4-((4-(5-ethyl-1H-1,2,4-triazol-1-yl)phenyl)amino)-1H-pyrazole-3-carboxamide]
100 to 1000 nM | 10 to 100 nM | COc1cc(Cl)c(-n2nc(Nc3ccc(C(=O)N4CCSCC4)cc3)c(C(N)=O)n2)c(Cl)c1 [compound 176, 2-(2,6-dichloro-4-methoxyphenyl)-5-((4-(thiomorpholine-4-carbonyl)phenyl)amino)-2H-1,2,3-triazole-4-carboxamide]
10 to 100 nM | 10 to 100 nM | NC(=O)c1nn(-c2c(Cl)cccc2Cl)cc1Nc1cnn(CC(=O)N2CCOCC2)c1 [compound 461, 1-(2,6-dichlorophenyl)-4-((1-(2-morpholino-2-oxoethyl)-1H-pyrazol-4-yl)amino)-1H-pyrazole-3-carboxamide]
100 to 1000 nM | 10 to 100 nM | NC(=O)c1nn(-c2c(Cl)cccc2Cl)nc1Nc1ccc(CC(=O)N2CCOCC2)nc1 [compound 151, 2-(2,6-dichlorophenyl)-5-((6-(2-morpholino-2-oxoethyl)pyridin-3-yl)amino)-2H-1,2,3-triazole-4-carboxamide]

Reference: US20230373985A1 (Origenis Gmbh, priority 2020, published 2023)
